Source: ChEMBL document CHEMBL5046301, “pH-Responsive Antimicrobial Peptide with Selective Killing Activity for Bacterial Abscess Therapy” (J Med Chem, 2022)
Activity calls are given as the source filed them. The rule behind the calls is not given here.

What was measured:
[1] = Hemolytic activity in human RBC assessed as hemoglobin release at pH 7.4 incubated for 1 hr; assay type: toxicity, cell-based; conditions: erythrocyte, pH 7.4, 1 h
[2] = Hemolytic activity against human RBC assessed as hemoglobin release at pH 6.5 incubated for 1 hrs; assay type: toxicity, cell-based; conditions: erythrocyte, pH 6.5, 1 h
[3] = Ratio of MHC for hemolytic activity against human RBC assessed as hemoglobin release at pH 6.5 to MHC for hemolytic activity against human RBC assessed as hemoglobin release at pH 7.4; assay type: toxicity, cell-based, Erythrocyte; conditions: human red blood cells (RBC)
[4] = Cytotoxicity against mouse RAW264.7 cells assessed as inhibition of cell growth at pH 7.4 measured after 24 hrs by MTT assay; assay type: toxicity, cell-based
[5] = Cytotoxicity against mouse RAW264.7 cells assessed as inhibition of cell growth at pH 6.5 measured after 24 hrs by MTT assay; assay type: toxicity, cell-based
[6] = tested on: Pseudomonas aeruginosa; experiment: Antimicrobial activity against Pseudomonas aeruginosa ATCC 27853 assessed as reduction in bacterial growth at pH 6.5 in presence of NaCl; assay type: functional
[7] = tested on: Pseudomonas aeruginosa; experiment: Antimicrobial activity against Pseudomonas aeruginosa ATCC 27853 assessed as reduction in bacterial growth at pH 6.5 in presence of 50% serum; assay type: functional, organism-based
[8] = tested on: Pseudomonas aeruginosa; experiment: Antimicrobial activity against Pseudomonas aeruginosa ATCC 27853 assessed as reduction in bacterial growth at pH 7.4 in presence of NaCl; assay type: functional, organism-based
[9] = tested on: Pseudomonas aeruginosa; experiment: Antimicrobial activity against Pseudomonas aeruginosa ATCC 27853 assessed as reduction in bacterial growth at pH 7.4 in presence of CaCl2; assay type: functional, organism-based
[10] = tested on: Pseudomonas aeruginosa; experiment: Antimicrobial activity against Pseudomonas aeruginosa ATCC 27853 assessed as reduction in bacterial growth at pH 7.4 in presence of 50% serum; assay type: functional, organism-based
[11] = tested on: Staphylococcus epidermidis; experiment: Antibacterial activity against Staphylococcus epidermidis ATCC 12228 assessed as inhibition of bacterial growth at pH 6.5 incubated for 24 hrs by NCCLS protocol based method; assay type: functional
[12] = tested on: Staphylococcus aureus; experiment: Antibacterial activity against methicillin-resistant Staphylococcus aureus ATCC 43300 assessed as inhibition of bacterial growth at pH 7.4 incubated for 24 hrs by NCCLS protocol based method; assay type: functional
[13] = tested on: Salmonella typhimurium; experiment: Antibacterial activity against Salmonella enterica subsp. enterica serovar Typhimurium C77-31 assessed as inhibition of bacterial growth at pH 7.4 incubated for 24 hrs by NCCLS protocol based method; assay type: functional
[14] = tested on: Salmonella typhimurium; experiment: Antibacterial activity against Salmonella typhimurium ATCC 14028 assessed as inhibition of bacterial growth at pH 7.4 incubated for 24 hrs by NCCLS protocol based method; assay type: functional, Salmonella enterica subsp. enterica serovar Typhimurium; conditions: Salmonella enterica
[15] = tested on: Escherichia coli; experiment: Antibacterial activity against Escherichia coli ATCC 25922 assessed as inhibition of bacterial growth at pH 7.4 incubated for 24 hrs by NCCLS protocol based method; assay type: functional
[16] = tested on: Pseudomonas aeruginosa; experiment: Antibacterial activity against Pseudomonas aeruginosa ATCC 27853 assessed as inhibition of bacterial growth at pH 7.4 incubated for 24 hrs by NCCLS protocol based method; assay type: functional
[17] = tested on: Staphylococcus aureus; experiment: Antibacterial activity against Staphylococcus aureus ATCC 29213 assessed as inhibition of bacterial growth at pH 7.4 incubated for 24 hrs by NCCLS protocol based method; assay type: functional
[18] = tested on: Staphylococcus epidermidis; experiment: Antibacterial activity against Staphylococcus epidermidis ATCC 12228 assessed as inhibition of bacterial growth at pH 7.4 incubated for 24 hrs by NCCLS protocol based method; assay type: functional
[19] = tested on: Staphylococcus aureus; experiment: Antibacterial activity against Staphylococcus aureus ATCC 25923 assessed as inhibition of bacterial growth at pH 7.4 incubated for 24 hrs by NCCLS protocol based method; assay type: functional
[20] = tested on: Salmonella typhimurium; experiment: Antibacterial activity against Salmonella enterica subsp. enterica serovar Typhimurium C77-31 assessed as inhibition of bacterial growth at pH 6.5 incubated for 24 hrs by NCCLS protocol based method; assay type: functional
[21] = tested on: Salmonella typhimurium; experiment: Antibacterial activity against Salmonella typhimurium ATCC 14028 assessed as inhibition of bacterial growth at pH 6.5 incubated for 24 hrs by NCCLS protocol based method; assay type: functional, Salmonella enterica subsp. enterica serovar Typhimurium; conditions: Salmonella enterica
[22] = tested on: Escherichia coli; experiment: Antibacterial activity against Escherichia coli ATCC 25922 assessed as inhibition of bacterial growth at pH 6.5 incubated for 24 hrs by NCCLS protocol based method; assay type: functional
[23] = tested on: Pseudomonas aeruginosa; experiment: Antibacterial activity against Pseudomonas aeruginosa ATCC 27853 assessed as inhibition of bacterial growth at pH 6.5 incubated for 24 hrs by NCCLS protocol based method; assay type: functional
[24] = tested on: Staphylococcus aureus; experiment: Antibacterial activity against Staphylococcus aureus ATCC 29213 assessed as inhibition of bacterial growth at pH 6.5 incubated for 24 hrs by NCCLS protocol based method; assay type: functional
[25] = tested on: Staphylococcus aureus; experiment: Antibacterial activity against Staphylococcus aureus ATCC 25923 assessed as inhibition of bacterial growth at pH 6.5 incubated for 24 hrs by NCCLS protocol based method; assay type: functional
[26] = tested on: Staphylococcus aureus; experiment: Antibacterial activity against methicillin-resistant Staphylococcus aureus ATCC 43300 assessed as inhibition of bacterial growth at pH 6.5 incubated for 24 hrs by NCCLS protocol based method; assay type: functional
[27] = tested on: Cell membrane; experiment: Induction of outer membrane permeabilization in Pseudomonas aeruginosa ATCC 27853 assessed as pH responsive ability by measuring fold increase in NPN uptake at 64 uM by NPN-dye based fluorescence analysis relative to control; assay type: subcellular
[28] = tested on: Cell membrane; experiment: Induction of cytoplasmic membrane depolarization in Pseudomonas aeruginosa ATCC 27853 assessed as increase in fluorescence intensity at acidic and alkaline pH by DiSC3-5 dye based fluorescence assay; assay type: subcellular; conditions: TDE = time-dependent effect
[29] = tested on: Lipopolysaccharide (LPS); experiment: Displacement of BODIPY-TR-cadaverin from Pseudomonas aeruginosa ATCC 27316 Lipopolysaccharide at 1 to 64 uM at pH 6.5 incubated for 1 hr by fluorescence based analysis; conditions: dose 1-64 µM
[30] = tested on: Lipopolysaccharide (LPS); experiment: Displacement of BODIPY-TR-cadaverin from Pseudomonas aeruginosa ATCC 27316 Lipopolysaccharide at 1 to 64 uM at pH 7.4 incubated for 1 hr by fluorescence based analysis; conditions: dose 1-64 µM
[31] = tested on: Cell membrane; experiment: Induction of outer membrane permeabilization in Pseudomonas aeruginosa ATCC 27853 assessed as increase in NPN uptake by NPN-dye based fluorescence analysis; assay type: subcellular; conditions: dose 1-64 µM

Work on CC[C@H](C)[C@H](NC(=O)CN)C(=O)NCC(=O)N[C@@H](C)C(=O)N[C@H](C(=O)N[C@@H](CC(C)C)C(=O)N[C@@H](CCCCN)C(=O)N[C@H](C(=O)N[C@@H](CC(C)C)C(=O)N[C@H](C(=O)N[C@H](C(=O)NCC(=O)N[C@@H](CC(C)C)C(=O)N1CCC[C@H]1C(=O)N[C@@H](C)C(=O)N[C@@H](CC(C)C)C(=O)N[C@H](C(=O)N[C@@H](CO)C(=O)N[C@@H](Cc1c[nH]c2ccccc12)C(=O)N[C@H](C(=O)N[C@@H](CCCCN)C(=O)N[C@@H](CCCNC(=N)N)C(=O)N[C@@H](CCCCN)C(=O)N[C@@H](CCCNC(=N)N)C(=O)N[C@@H](CCC(N)=O)C(=O)N[C@@H](CCC(N)=O)C(N)=O)[C@@H](C)CC)[C@@H](C)CC)[C@@H](C)O)[C@@H](C)O)C(C)C)C(C)C [MELITTIN] yielded an MHC10 [1] of 4 µM, an MHC10 [2] of 2 µM and a selectivity ratio [3] of 0.5. For the same molecule, the IC50 at 24 h [4] was 1.94 µM, the IC50 at 24 h [5] was 1.3 µM and the Activity [6] was “inactive”. For the same molecule, the Activity [7] was “inactive”, the Activity [8] was “inactive” and the Activity [9] was “inactive”. For the same molecule, the Activity [10] was “inactive”.

With H-FLFKLIPKVIKGLVKAIRK-NH2 the MIC [11] was 2 µM, the MIC [12] was 2 µM and the MIC [13] was 4 µM. It also gave an MIC [14] of 2 µM, an MIC [15] of 2 µM and an MIC [16] of 4 µM. For the same molecule, the MIC [17] was 2 µM, the MIC [18] was 2 µM and the MIC [19] was 2 µM. It also gave an MIC [20] of 2 µM, an MIC [21] of 2 µM and an MIC [22] of 1 µM. The MIC [23] was 1 µM, the MIC [24] was 2 µM and the MIC [25] was 2 µM. For the same molecule, the MIC [26] was 2 µM, the MHC10 [1] was 16 µM and the MHC10 [2] was 2 µM. The selectivity ratio [3] was 0.13, the IC50 at 24 h [4] was 2.45 µM and the IC50 at 24 h [5] was 1.91 µM. The Activity [27] was “inactive”, the Activity [28] was “Tde” and the Activity [29] was “Active”. For the same molecule, the Activity [30] was “Active” and the Activity [31] was “Dose-Dependent Effect”.
